Results: patent US6946297B2, “System for stabilizing samples” (priority 1999, dated 2005)
Where “and” joins values, the source holds several entries; their conditions need not be identical. Identical values can stand only once.

Legend:
Type in all cases: cell-based
Escherichia coli = experiment: Survival of organisms in inoculated urine with preservative components, 24 hours at room temperature; parameters: key to Survival value esco: 24 h count / control count; 1 = no change, 0.1 = 1-log decrease; conditions: for Concentration with cidal activity against Escherichia coli: component alone
Procedure: (§1) Antimicrobial activity for each active ingredient in the Chemistat I formulations was first determined for representative organisms listed in Table I. A culture for each organism of interest on blood agar was incubated at 36° C. overnight. About two to three colonies of the organism were transferred via sterile swab from the blood agar culture into a 5 ml Mueller-Hinton broth culture tube, which was then incubated on a rotator for about two to three hours at 36° C. Using a spectrophotometer set at a wavelength of 630 nm, the turbidity of broth culture was adjusted by the addition of Mueller-Hinton broth to an optical density equivalent to approximately 1×10^8 colony forming units (cfu)/ml to form an inoculum solution. An aliquot of the inoculum solution was plated onto blood agar to determine the actual control organism count. For each component listed in Table II, the component was added to filter-sterilized pooled normal urine at the concentration given in Table II to form a test sample. The test sample was then inoculated with an aliquot of the inoculum solution providing a final organism count of approximately 1×10^6 cfu/ml of test sample. Immediately after thorough mixing, an aliquot of the test sample was removed and serially diluted in PBS, and serial dilutions were plated onto blood agar to determine the Time Zero organism count. The inoculated plates were incubated at 36° C., and organism counts were recorded after 18-24 hours. After incubating the test sample for 24 hours at room temperature, an aliquot of the test sample was again removed, serially diluted in PBS and plated onto blood agar. After incubating for 18-24 hours at 36° C., organism counts were obtained. The organism count obtained after 24 hours incubation at room temperature was divided by the control organism count to provide the survival value of each organism as recorded in Table II. With respect to changes in microbial count, a survival value of 1 represents no change; a survival value of 0.1 indicates a 1-log decrease; a survival value of 10 indicates a 1-log increase; and a survival value of 0.000 represents a decrease of greater than or equal to 3-logs. In comparison, the lower the survival value, the greater the component's capacity for controlling organism growth.

Klebsiella pneumoniae = experiment: as above
Procedure: as §1

Proteus vulgaris = experiment: as above
Procedure: as §1

Pseudomonas aeruginosa = experiment: as above; conditions: for Concentration with cidal activity against Pseudomonas aeruginosa: component alone
Procedure: as §1

Enterococcus faecalis = experiment: as above; parameters: key to Survival value enfa: 24 h count / control count; 1 = no change, 0.1 = 1-log decrease; conditions: for Concentration with cidal activity against Enterococcus faecalis: component alone
Procedure: as §1

Candida albicans = experiment: as above; parameters: key to Survival value caal: 24 h count / control count; 1 = no change, 0.1 = 1-log decrease; conditions: for Concentration with cidal activity against Candida albicans: component alone
Procedure: as §1

Enterobacter aerogenes = experiment: as above; parameters: key to Survival value enae: 24 h count / control count; 1 = no change, 0.1 = 1-log decrease; conditions: for Concentration with cidal activity against Enterobacter aerogenes: component alone
Procedure: as §1

[1] = system: microorganisms of interest; experiment: Antimicrobial (cidal) activity against the organisms of interest taken together; conditions: component alone
Procedure: as §1, with “With respect to changes in microbial count, a survival value of 1 represents no change; a survival value of 0.1 indicates a 1-log decrease; a survival value of 10 indicates a 1-log increase; and a survival value of 0.000 represents a decrease of greater than or equal to 3-logs. In comparison, the lower the survival value, the greater the component's capacity for controlling organism growth.” left out

[2] = single component at 0.005 mg/ml
[3] = single component at 0.0075 mg/ml

## OCCc1ccccc1 [2-Phenyl ethanol, 2-phenyl ethanol]
Escherichia coli
  Concentration with cidal activity against Escherichia coli: 4 μl/ml
Escherichia coli; single component at 1 μl/ml
  Survival value esco: tntc
Escherichia coli; single component at 1.8 μl/ml
  Survival value esco: tntc
Escherichia coli; single component at 2.5 μl/ml
  Survival value esco: 0.245
Escherichia coli; single component at 4 μl/ml
  Survival value esco: 0.000
Escherichia coli; single component at 10 μl/ml
  Survival value esco: 0.000
Klebsiella pneumoniae; single component at 1.8 μl/ml
  Survival value klpn: tntc
Proteus vulgaris; single component at 1.8 μl/ml
  Survival value prvu: tntc
Pseudomonas aeruginosa
  Concentration with cidal activity against Pseudomonas aeruginosa: 5 μl/ml
Pseudomonas aeruginosa; single component at 1 μl/ml
  Survival value psae: 4.819
Pseudomonas aeruginosa; single component at 1.8 μl/ml
  Survival value psae: tntc
Pseudomonas aeruginosa; single component at 2.5 μl/ml
  Survival value psae: 0.199
Pseudomonas aeruginosa; single component at 4 μl/ml
  Survival value psae: 0.019
Pseudomonas aeruginosa; single component at 5 μl/ml
  Survival value psae: 0.000
Pseudomonas aeruginosa; single component at 10 μl/ml
  Survival value psae: 0.000
Enterococcus faecalis
  Concentration with cidal activity against Enterococcus faecalis: > 10 μl/ml
Enterococcus faecalis; single component at 1 μl/ml
  Survival value enfa: tntc
Enterococcus faecalis; single component at 1.8 μl/ml
  Survival value enfa: tntc
Enterococcus faecalis; single component at 2.5 μl/ml
  Survival value enfa: tntc
Enterococcus faecalis; single component at 4 μl/ml
  Survival value enfa: tntc
Enterococcus faecalis; single component at 5 μl/ml
  Survival value enfa: tntc
Enterococcus faecalis; single component at 10 μl/ml
  Survival value enfa: 1.495
Candida albicans
  Concentration with cidal activity against Candida albicans: 10 μl/ml
Candida albicans; single component at 1.8 μl/ml
  Survival value caal: tntc
Candida albicans; single component at 4 μl/ml
  Survival value caal: 1.081
Candida albicans; single component at 10 μl/ml
  Survival value caal: 0.000
Enterobacter aerogenes
  Concentration with cidal activity against Enterobacter aerogenes: 10 μl/ml
Enterobacter aerogenes; single component at 1 μl/ml
  Survival value enae: tntc
Enterobacter aerogenes; single component at 2.5 μl/ml
  Survival value enae: 0.092
Enterobacter aerogenes; single component at 4 μl/ml
  Survival value enae: 0.244
Enterobacter aerogenes; single component at 5 μl/ml
  Survival value enae: 0.440
Enterobacter aerogenes; single component at 10 μl/ml
  Survival value enae: 0.000
[1]
  Concentration required for cidal action: greater than 2.5 μl/ml

## OB(O)O [Boric Acid, boric acid, reference compound]
Escherichia coli; concentrations as in label
  Antimicrobial action against Escherichia coli, in words: ineffective
Escherichia coli; single component at 5 mg/ml
  Survival value esco: 0.770
Pseudomonas aeruginosa; concentrations as in label
  Antimicrobial action against Pseudomonas aeruginosa, in words: ineffective
Pseudomonas aeruginosa; single component at 5 mg/ml
  Survival value psae: 1.157
Enterococcus faecalis; concentrations as in label
  Antimicrobial action against Enterococcus faecalis, in words: ineffective
Enterococcus faecalis; single component at 5 mg/ml
  Survival value enfa: 2.647
Enterobacter aerogenes; concentrations as in label
  Antimicrobial action against Enterobacter aerogenes, in words: ineffective
Enterobacter aerogenes; single component at 5 mg/ml
  Survival value enae: 1.061

## [H]/N=C(\N/C(=N/[H])NCCCCCCNC(=N)NC(=N)Nc1ccc(Cl)cc1)Nc1ccc(Cl)cc1 [Chlorhexidine, chlorhexidine, reference compound]
Escherichia coli
  Concentration with cidal activity against Escherichia coli: 0.0075 mg/mL
Escherichia coli; [2]
  Survival value esco: 0.003
Escherichia coli; [3]
  Survival value esco: 0.000
Escherichia coli; single component at 0.01 mg/ml
  Survival value esco: 0.000
Escherichia coli; single component at 0.02 mg/ml
  Survival value esco: 0.000
Escherichia coli; single component at 0.05 mg/ml
  Survival value esco: 0.000
Escherichia coli; single component at 0.1 mg/ml
  Survival value esco: 0.000
Escherichia coli; single component at 0.8 mg/ml
  Survival value esco: 0.000
Klebsiella pneumoniae; component alone
  Concentration with cidal activity against Klebsiella pneumoniae: 0.02 mg/mL
Klebsiella pneumoniae; single component at 0.02 mg/ml
  Survival value klpn: 0.000
Proteus vulgaris; component alone
  Concentration with cidal activity against Proteus vulgaris: 0.02 mg/mL
Proteus vulgaris; single component at 0.02 mg/ml
  Survival value prvu: 0.000
Pseudomonas aeruginosa
  Concentration with cidal activity against Pseudomonas aeruginosa: > 0.05 mg/mL
Pseudomonas aeruginosa; [2]
  Survival value psae: tntc
Pseudomonas aeruginosa; [3]
  Survival value psae: 4.049
Pseudomonas aeruginosa; single component at 0.01 mg/ml
  Survival value psae: 0.277
Pseudomonas aeruginosa; single component at 0.05 mg/ml
  Survival value psae: 0.046
Enterococcus faecalis
  Concentration with cidal activity against Enterococcus faecalis: 0.05 to 0.8 mg/mL
Enterococcus faecalis; [2]
  Survival value enfa: 1.115
Enterococcus faecalis; [3]
  Survival value enfa: 0.598
Enterococcus faecalis; single component at 0.01 mg/ml
  Survival value enfa: 0.520
Enterococcus faecalis; single component at 0.02 mg/ml
  Survival value enfa: 0.179 and 0.141
Enterococcus faecalis; single component at 0.05 mg/ml
  Survival value enfa: 0.000
Enterococcus faecalis; single component at 0.1 mg/ml
  Survival value enfa: 0.561
Enterococcus faecalis; single component at 0.8 mg/ml
  Survival value enfa: 0.000
Candida albicans
  Concentration with cidal activity against Candida albicans: 0.0075 mg/mL
Candida albicans; [2]
  Survival value caal: 5.308
Candida albicans; [3]
  Survival value caal: 0.000
Candida albicans; single component at 0.02 mg/ml
  Survival value caal: 0.000
Candida albicans; single component at 0.05 mg/ml
  Survival value caal: 0.000
Candida albicans; single component at 0.1 mg/ml
  Survival value caal: 0.000
Candida albicans; single component at 0.8 mg/ml
  Survival value caal: 0.000
Enterobacter aerogenes
  Concentration with cidal activity against Enterobacter aerogenes: 0.01 mg/mL
Enterobacter aerogenes; [2]
  Survival value enae: tntc
Enterobacter aerogenes; [3]
  Survival value enae: 6.098
Enterobacter aerogenes; single component at 0.01 mg/ml
  Survival value enae: 0.000
Enterobacter aerogenes; single component at 0.05 mg/ml
  Survival value enae: 0.000
[1]
  Concentration required for cidal action: greater than or equal to 0.01 mg/ml
